This note sets out measurements from ChEMBL document CHEMBL4376829, “Discovery and biological evaluation of vinylsulfonamide derivatives as highly potent, covalent TEAD autopalmitoylation inhibitors” (Eur J Med Chem, 2019).

pIC50: −log10 of the molar value. Calls of active or inactive are those of the source. The rule behind the calls is not given here.

The target of assay [1] is Serine/threonine-protein kinase TAO2 (Homo sapiens) (UniProt Q9UL54). The assay is described as follows: Inhibition of recombinant human TAO2 (1 to 320 residues) at 10 uM using myelin basic protein as substrate measured after 40 mins in presence of [gamm33P]ATP by scintillation counting method relative to control.
Chain of Serine/threonine-protein kinase TAO2 (Homo sapiens) (Q9UL54 whole entry, the tested form may be a part): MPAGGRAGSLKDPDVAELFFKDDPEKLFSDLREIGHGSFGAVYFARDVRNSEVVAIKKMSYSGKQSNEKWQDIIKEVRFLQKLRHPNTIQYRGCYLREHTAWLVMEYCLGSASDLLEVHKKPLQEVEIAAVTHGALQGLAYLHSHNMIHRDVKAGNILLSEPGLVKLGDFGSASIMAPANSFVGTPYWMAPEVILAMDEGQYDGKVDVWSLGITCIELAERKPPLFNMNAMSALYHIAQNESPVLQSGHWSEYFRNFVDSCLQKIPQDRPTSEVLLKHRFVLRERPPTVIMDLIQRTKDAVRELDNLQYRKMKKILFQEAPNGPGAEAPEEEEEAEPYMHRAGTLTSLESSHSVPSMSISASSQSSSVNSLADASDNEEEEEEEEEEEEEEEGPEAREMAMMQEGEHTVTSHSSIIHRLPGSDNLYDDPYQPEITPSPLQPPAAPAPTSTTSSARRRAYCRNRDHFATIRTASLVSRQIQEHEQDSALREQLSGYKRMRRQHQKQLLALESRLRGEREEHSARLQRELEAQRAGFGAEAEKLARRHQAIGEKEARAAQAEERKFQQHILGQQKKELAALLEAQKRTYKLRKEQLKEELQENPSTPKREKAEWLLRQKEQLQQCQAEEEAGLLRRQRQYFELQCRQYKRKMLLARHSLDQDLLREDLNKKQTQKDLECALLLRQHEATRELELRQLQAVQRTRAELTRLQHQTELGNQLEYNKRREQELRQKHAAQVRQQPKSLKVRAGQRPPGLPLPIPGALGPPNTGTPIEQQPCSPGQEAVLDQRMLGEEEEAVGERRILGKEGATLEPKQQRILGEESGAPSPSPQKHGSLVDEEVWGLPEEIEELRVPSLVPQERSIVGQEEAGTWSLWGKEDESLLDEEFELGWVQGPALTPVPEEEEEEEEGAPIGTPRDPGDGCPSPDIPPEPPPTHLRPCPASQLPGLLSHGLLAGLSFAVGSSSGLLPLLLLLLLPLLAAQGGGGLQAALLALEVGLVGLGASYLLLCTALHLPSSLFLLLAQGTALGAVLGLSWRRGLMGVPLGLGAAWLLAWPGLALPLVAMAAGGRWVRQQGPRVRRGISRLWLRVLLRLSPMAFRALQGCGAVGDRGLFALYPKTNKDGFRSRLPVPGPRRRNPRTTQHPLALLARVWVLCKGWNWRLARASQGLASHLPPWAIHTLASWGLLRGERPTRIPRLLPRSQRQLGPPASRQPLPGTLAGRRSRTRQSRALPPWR
Assay [2] concerns the target Protein kinase C iota type (Homo sapiens) (UniProt P41743). Description: Inhibition of full-length recombinant human PKCiota at 10 uM using ERMRPRKRQGSVRRRV as substrate after 40 mins by in presence of [gamma33P]ATP by scintillation counting method relative to control.
Assay [3] is filed under the species Homo sapiens. The assay is described as follows: Inhibition of recombinant human MAPKAPK2 A399G mutant (46 to end residues) at 10 uM using KKLNRTLSVA as substrate measured after 40 mins in presence of [gamma33P]ATP by scintillation counting method relative to control.
Assay [4] concerns the target Tyrosine-protein kinase ABL2 (Homo sapiens) (UniProt P42684). The assay is described as follows: Inhibition of recombinant human ARG (38 to end residues) at 10 uM using EAIYAAPFAKKK as substrate measured after 40 mins in presence of [gamma33P]ATP by scintillation counting method relative to control.
The species named for assay [5] is Homo sapiens. The assay is described as follows: Inhibition of recombinant full-length human ATRIP/ATR M211T mutant at 10 uM using GST-cMyc-p53 as substrate measured after 40 mins by fluorescence assay relative to control.
In assay [6] the target is Tyrosine-protein kinase SYK (Homo sapiens) (UniProt P43405). Description: Inhibition of full length recombinant human Syk at 10 uM using poly(Glu, Tyr) 4:1 as substrate after 40 mins in presence of [gamma33P]ATP by scintillation counting method relative to control.
In assay [7] the target is Tyrosine-protein kinase Fes/Fps (Homo sapiens) (UniProt P07332). The assay is described as follows: Inhibition of recombinant human FES (2 to end residues) at 10 uM using poly(Glu, Tyr) 4:1 as substrate measured after 40 mins in presence of [gamma33P]ATP by scintillation counting method relative to control.
Assay [8] concerns the target Mitogen-activated protein kinase kinase kinase 7 (Homo sapiens) (UniProt O43318). The assay is described as follows: Inhibition of recombinant human TAK1 (1 to 303 residues) at 10 uM using casein as substrate measured after 40 mins in presence of [gamma33P]ATP by scintillation counting method relative to control.
Assay [9] has as its target Serine/threonine-protein kinase/endoribonuclease IRE1 (Homo sapiens) (UniProt O75460). Description: Inhibition of recombinant human IRE1 (465 to end residues) at 10 uM using myelin basic protein as substrate measured after 40 mins in presence of [gamma33P]ATP by scintillation counting method relative to control.
Assay [10] addresses PI3-kinase p110-alpha/p85-alpha (Homo sapiens) (UniProt P27986+P42336). Description: Inhibition of full-length recombinant human PI3K (p110a/p85a) at 10 uM using phosphatidylinositol 4,5-bisphosphate as substrate after 40 mins by fluorescence based assay relative to control. Type of assay: protein-complex assay.
Assay [11] concerns the target Histone-arginine methyltransferase CARM1 (Homo sapiens) (UniProt Q86X55). Description: Inhibition of human PRMT4 at 10 uM relative to control.
In assay [12] the target is Fatty acid-binding protein, heart (Homo sapiens) (UniProt P05413). Description: Binding affinity to FABP3 (unknown origin) at 1:1 ratio by fluorescence based thermal shift assay.
Chain of Fatty acid-binding protein, heart (Homo sapiens) (P05413 2-133 limits assumed): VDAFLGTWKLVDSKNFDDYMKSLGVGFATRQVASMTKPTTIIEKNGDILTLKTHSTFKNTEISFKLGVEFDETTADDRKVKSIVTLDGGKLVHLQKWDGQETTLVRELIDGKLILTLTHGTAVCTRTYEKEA
Assay [13] concerns the target T1, Transcriptional enhancer factor TEF-3 (Homo sapiens, UniProt Q15561). The assay is described as follows: Inhibition of N-terminal His6 tagged human TEAD4-YBD (217 to 434 residues) expressed in Escherichia coli C43 (DE3) cells assessed as reduction in autopalmitoylation preincubated for 2 hrs followed by palmitoyl alkyne-coenzyme A addition and measured after 30 mins by immunoblot analysis.

Assay [14] addresses Mitogen-activated protein kinase kinase kinase kinase 3 (Homo sapiens) (UniProt Q8IVH8). The assay is described as follows: Inhibition of recombinant human MAP4K3 (1 to 291 residues) at 10 uM using RLGRDKYKTLRQIRQ as substrate measured after 40 mins in presence of [gamma33P]ATP by scintillation counting method relative to control.
Assay [15] addresses T1, Transcriptional enhancer factor TEF-3. Description: Binding affinity to N-terminal His6-tagged human TEAD4-YBD (217 to 434 residues) expressed in Escherichia coli C43 (DE3) cells assessed as change in melting temperature at 1:2 ratio by SYPRO-dye based thermal shift assay.
The target of assay [16] is NUAK family SNF1-like kinase 1 (Homo sapiens) (UniProt O60285). Description: Inhibition of recombinant human ARK5 (2 to end residues) at 10 uM using KKKVSRSGLYRSPSMPENLNRPR as substrate measured after 40 mins in presence of [gamma33P]ATP by scintillation counting method relative to control.
Chain of NUAK family SNF1-like kinase 1 (Homo sapiens) (O60285 whole entry): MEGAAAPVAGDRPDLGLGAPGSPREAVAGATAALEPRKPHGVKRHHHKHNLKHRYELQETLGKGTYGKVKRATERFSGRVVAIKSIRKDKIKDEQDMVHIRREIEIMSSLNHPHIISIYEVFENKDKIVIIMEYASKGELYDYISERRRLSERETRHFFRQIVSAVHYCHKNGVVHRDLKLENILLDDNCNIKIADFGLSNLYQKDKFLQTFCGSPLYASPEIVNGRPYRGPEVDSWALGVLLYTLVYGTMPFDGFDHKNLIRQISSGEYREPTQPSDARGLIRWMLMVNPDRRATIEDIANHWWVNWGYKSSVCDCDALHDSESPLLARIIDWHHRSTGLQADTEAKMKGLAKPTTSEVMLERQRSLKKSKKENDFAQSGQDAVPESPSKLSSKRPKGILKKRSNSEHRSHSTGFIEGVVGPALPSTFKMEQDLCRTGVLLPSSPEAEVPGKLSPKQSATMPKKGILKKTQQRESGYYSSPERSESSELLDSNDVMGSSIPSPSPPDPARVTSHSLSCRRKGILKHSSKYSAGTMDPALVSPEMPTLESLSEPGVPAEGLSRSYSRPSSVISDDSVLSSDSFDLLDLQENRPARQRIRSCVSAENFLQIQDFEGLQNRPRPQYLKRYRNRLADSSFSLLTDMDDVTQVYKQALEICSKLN
Assay [17] concerns the target Bromodomain-containing protein 4 (Homo sapiens) (UniProt O60885). The assay is described as follows: Inhibition of human BRD4-BD1 at 10 uM relative to control.
Assay [18] addresses Tyrosine-protein kinase Yes (Homo sapiens) (UniProt P07947). Description: Inhibition of recombinant full-length human Yes at 10 uM using poly(Glu, Tyr) 4:1 as substrate measured after 40 mins in presence of [gamma33P]ATP by scintillation counting method relative to control.
For assay [19], the target named is cGMP-dependent protein kinase 1 (Homo sapiens) (UniProt Q13976). Description: Inhibition of full-length recombinant human PKG1alpha at 10 uM using RRRLSFAEPG as substrate after 40 mins by in presence of [gamma33P]ATP by scintillation counting method relative to control.
Chain of cGMP-dependent protein kinase 1 (Homo sapiens) (Q13976 whole entry): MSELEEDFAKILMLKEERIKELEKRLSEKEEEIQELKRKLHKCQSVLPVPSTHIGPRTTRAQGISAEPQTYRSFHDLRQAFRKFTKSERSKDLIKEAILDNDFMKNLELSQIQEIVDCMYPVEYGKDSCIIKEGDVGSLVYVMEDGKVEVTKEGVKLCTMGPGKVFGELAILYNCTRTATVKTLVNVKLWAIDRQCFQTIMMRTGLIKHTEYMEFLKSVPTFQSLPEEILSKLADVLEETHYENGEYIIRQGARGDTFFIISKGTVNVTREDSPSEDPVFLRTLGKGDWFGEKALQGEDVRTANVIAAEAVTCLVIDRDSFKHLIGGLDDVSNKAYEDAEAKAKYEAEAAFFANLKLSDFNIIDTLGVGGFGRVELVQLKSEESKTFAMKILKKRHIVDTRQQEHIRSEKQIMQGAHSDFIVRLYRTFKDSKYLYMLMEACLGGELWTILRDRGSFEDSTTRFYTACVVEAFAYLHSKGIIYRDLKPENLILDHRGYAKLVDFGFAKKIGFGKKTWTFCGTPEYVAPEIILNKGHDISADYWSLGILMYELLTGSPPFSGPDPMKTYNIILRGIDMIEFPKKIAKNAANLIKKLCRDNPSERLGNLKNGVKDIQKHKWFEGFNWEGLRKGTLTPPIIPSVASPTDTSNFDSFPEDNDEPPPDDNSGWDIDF
Assay [20] addresses Mitogen-activated protein kinase 14 (Homo sapiens) (UniProt Q16539). Description: Inhibition of recombinant full-length human SAPK2a at 10 uM using myelin basic protein as substrate measured after 40 mins in presence of [gamma33P]ATP by scintillation counting method relative to control.
The target of assay [21] is Serine/threonine-protein kinase 26 (Homo sapiens) (UniProt Q9P289). The assay is described as follows: Inhibition of recombinant human MST4 (4 to 304 residues) at 10 uM using RLGRDKYKTLRQIRQ as substrate measured after 40 mins in presence of [gamma33P]ATP by scintillation counting method relative to control.
Chain of Serine/threonine-protein kinase 26 (Homo sapiens) (Q9P289 2-416 limits assumed): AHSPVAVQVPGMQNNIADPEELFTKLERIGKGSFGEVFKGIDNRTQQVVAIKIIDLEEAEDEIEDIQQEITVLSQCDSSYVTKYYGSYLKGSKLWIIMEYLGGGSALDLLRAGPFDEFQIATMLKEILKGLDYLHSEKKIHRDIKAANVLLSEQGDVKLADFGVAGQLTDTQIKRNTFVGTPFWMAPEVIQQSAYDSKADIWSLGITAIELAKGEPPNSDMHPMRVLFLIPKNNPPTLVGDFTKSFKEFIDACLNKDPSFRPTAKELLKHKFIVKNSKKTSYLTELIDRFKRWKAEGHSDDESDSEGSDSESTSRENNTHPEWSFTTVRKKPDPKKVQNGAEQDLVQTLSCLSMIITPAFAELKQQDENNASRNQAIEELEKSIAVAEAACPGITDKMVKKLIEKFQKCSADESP
Assay [22] addresses CDK6/cyclin D3 (Homo sapiens) (UniProt P30281+Q00534). Description: Inhibition of recombinant full-length human CDK6/cyclinD3 at 10 uM using histone H1 as substrate measured after 40 mins in presence of [gamma33P]ATP by scintillation counting method relative to control. The class given is protein-complex assay.
The target of assay [23] is Platelet-derived growth factor receptor beta (Homo sapiens) (UniProt P09619). Description: Inhibition of recombinant human PDGFRbeta (557 to end residues) at 10 uM using poly(Glu, Tyr) 4:1 as substrate measured after 40 mins in presence of [gamma33P]ATP by scintillation counting method relative to control.
Assay [24] has as its target T1, Transcriptional enhancer factor TEF-3. The assay is described as follows: Binding affinity to N-terminal His6-tagged human TEAD4-YBD (217 to 434 residues) expressed in Escherichia coli C43 (DE3) cells assessed as change in melting temperature at 1:1 ratio by SYPRO-dye based thermal shift assay.

T1 sequence (Q15561 whole entry, the tested form may be a part): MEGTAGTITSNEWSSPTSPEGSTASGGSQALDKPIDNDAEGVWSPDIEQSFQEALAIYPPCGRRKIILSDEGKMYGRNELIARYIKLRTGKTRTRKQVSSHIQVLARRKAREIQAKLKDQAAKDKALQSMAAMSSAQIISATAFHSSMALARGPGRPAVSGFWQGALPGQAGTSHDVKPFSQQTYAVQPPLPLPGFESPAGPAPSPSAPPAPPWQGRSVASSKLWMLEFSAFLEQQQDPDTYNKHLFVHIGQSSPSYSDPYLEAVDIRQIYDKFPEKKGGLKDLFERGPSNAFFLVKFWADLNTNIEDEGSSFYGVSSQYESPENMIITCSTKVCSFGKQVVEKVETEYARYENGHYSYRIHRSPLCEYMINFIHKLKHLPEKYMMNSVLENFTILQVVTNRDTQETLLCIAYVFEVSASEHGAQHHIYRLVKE
Chain of Mitogen-activated protein kinase 14 (Homo sapiens) (Q16539 whole entry, the tested form may be a part): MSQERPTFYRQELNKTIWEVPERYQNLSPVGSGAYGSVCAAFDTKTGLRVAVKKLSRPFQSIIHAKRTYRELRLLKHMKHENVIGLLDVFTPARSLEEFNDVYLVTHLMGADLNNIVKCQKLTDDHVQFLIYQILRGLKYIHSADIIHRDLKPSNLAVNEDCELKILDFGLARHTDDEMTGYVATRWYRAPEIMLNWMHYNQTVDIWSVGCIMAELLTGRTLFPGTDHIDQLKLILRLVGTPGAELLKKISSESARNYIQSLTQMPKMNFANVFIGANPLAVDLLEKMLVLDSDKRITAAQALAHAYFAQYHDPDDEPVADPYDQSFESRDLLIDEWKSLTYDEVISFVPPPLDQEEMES
Chain of Protein kinase C iota type (Homo sapiens) (P41743 whole entry): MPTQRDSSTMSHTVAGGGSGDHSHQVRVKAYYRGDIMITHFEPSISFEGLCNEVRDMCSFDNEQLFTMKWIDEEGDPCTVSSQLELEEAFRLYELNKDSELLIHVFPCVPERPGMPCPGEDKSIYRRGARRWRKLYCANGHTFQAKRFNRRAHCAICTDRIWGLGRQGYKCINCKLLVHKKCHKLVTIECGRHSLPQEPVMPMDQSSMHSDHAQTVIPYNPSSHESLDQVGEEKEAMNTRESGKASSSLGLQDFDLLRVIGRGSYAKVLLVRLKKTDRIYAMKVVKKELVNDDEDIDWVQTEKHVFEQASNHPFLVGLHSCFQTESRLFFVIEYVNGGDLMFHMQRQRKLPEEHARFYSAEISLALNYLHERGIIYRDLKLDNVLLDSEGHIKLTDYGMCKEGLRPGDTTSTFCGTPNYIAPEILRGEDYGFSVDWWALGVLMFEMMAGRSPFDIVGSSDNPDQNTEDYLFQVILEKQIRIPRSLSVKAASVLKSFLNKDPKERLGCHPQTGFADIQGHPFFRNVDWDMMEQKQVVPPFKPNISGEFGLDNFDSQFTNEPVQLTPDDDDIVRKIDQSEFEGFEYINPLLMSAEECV

With `C=CS(=O)(=O)Nc1ccc(Cc2ccc3ccccc3c2)cc1`, the inhibition (commonly the drop in the measured response relative to a control, in per cent) is 22% in assay [1]; 5% in assay [2]; -6% in the assay filed under Homo sapiens [3]; 16% in [4]; 3% in the assay filed under Homo sapiens [5]; -4% in assay [6]. For the same compound, the inhibition is 0% in [7]; 5% in [8]; -4% in assay [9]; 16% in assay [10]; 5% in assay [11]; 9% in assay [14]. The inhibition in assay [16] is 10%; in assay [17] it was 10%; in assay [18], 3%; in assay [19] it was -6%; in [20] it was 10%; in assay [21], 1%. Moreover, the values for the inhibition in assay [22] and in assay [23] were -1% and 3%, respectively. Also, the result in assay [12] was Active. Also, the pIC50 – broadly, the negative decadic logarithm of the IC50, by convention in mol/L – in [13] is 6.71. Moreover, the ΔTm (usually the shift of the melting midpoint relative to a reference) in assay [15] is 7.4 °C; in assay [24], 7 to 7.2 °C.
